± gives the expanded uncertainty stated by the source.
How the values were obtained:
[1] = 101 kPa, Liquid; for speed of sound: Linear variable-path acoustic interferometer; for mass density: Pycnometric method
[2] = xn = mol fraction of the nth substance listed; conditions: 101 kPa, Liquid; for speed of sound: Linear variable-path acoustic interferometer; for mass density: Pycnometric method

Cc1ccccc1N [2-methylaniline]
speed of sound ([1]; 303.15 K): 1579 ± 3 m/s | mass density ([1]; 303.15 K): 990.1 ± 0.3 kg/m3 | speed of sound ([1]; 313.15 K): 1539 ± 3 m/s | mass density ([1]; 313.15 K): 981.7 ± 0.4 kg/m3 | speed of sound ([1]; 323.15 K): 1501 ± 3 m/s | mass density ([1]; 323.15 K): 973.3 ± 0.4 kg/m3

Cc1ccccc1N [2-methylaniline] + C1CCOC1
speed of sound ([2]; 303.15 K, x2 = 0): 1579 ± 3 m/s | speed of sound ([2]; 303.15 K, x2 = 0.0828): 1559 ± 3 m/s | speed of sound ([2]; 303.15 K, x2 = 0.1818): 1534 ± 3 m/s | speed of sound ([2]; 303.15 K, x2 = 0.2807): 1508 ± 3 m/s | speed of sound ([2]; 303.15 K, x2 = 0.3704): 1482 ± 3 m/s | speed of sound ([2]; 303.15 K, x2 = 0.4652): 1455 ± 3 m/s | speed of sound ([2]; 303.15 K, x2 = 0.5732): 1421 ± 3 m/s | speed of sound ([2]; 303.15 K, x2 = 0.6764): 1382 ± 3 m/s | speed of sound ([2]; 303.15 K, x2 = 0.7791): 1343 ± 3 m/s | speed of sound ([2]; 303.15 K, x2 = 0.888): 1300 ± 2 m/s | mass density ([2]; 303.15 K, x2 = 0): 990.1 ± 0.3 kg/m3 | mass density ([2]; 303.15 K, x2 = 0.0828): 984 ± 0.3 kg/m3 | mass density ([2]; 303.15 K, x2 = 0.1818): 977 ± 0.3 kg/m3 | mass density ([2]; 303.15 K, x2 = 0.2807): 969.9 ± 0.3 kg/m3 | mass density ([2]; 303.15 K, x2 = 0.3704): 962.6 ± 0.3 kg/m3 | mass density ([2]; 303.15 K, x2 = 0.4652): 953.7 ± 0.3 kg/m3 | mass density ([2]; 303.15 K, x2 = 0.5732): 941.7 ± 0.3 kg/m3 | mass density ([2]; 303.15 K, x2 = 0.6764): 928.4 ± 0.3 kg/m3 | mass density ([2]; 303.15 K, x2 = 0.7791): 913.3 ± 0.3 kg/m3 | mass density ([2]; 303.15 K, x2 = 0.888): 895.8 ± 0.3 kg/m3 | speed of sound ([2]; 313.15 K, x2 = 0): 1539 ± 3 m/s | speed of sound ([2]; 313.15 K, x2 = 0.0828): 1519 ± 3 m/s | speed of sound ([2]; 313.15 K, x2 = 0.1818): 1493 ± 3 m/s | speed of sound ([2]; 313.15 K, x2 = 0.2807): 1467 ± 3 m/s | speed of sound ([2]; 313.15 K, x2 = 0.3704): 1442 ± 3 m/s | speed of sound ([2]; 313.15 K, x2 = 0.4652): 1414 ± 3 m/s | speed of sound ([2]; 313.15 K, x2 = 0.5732): 1379 ± 3 m/s | speed of sound ([2]; 313.15 K, x2 = 0.6764): 1341 ± 3 m/s | speed of sound ([2]; 313.15 K, x2 = 0.7791): 1301 ± 2 m/s | speed of sound ([2]; 313.15 K, x2 = 0.888): 1255 ± 2 m/s | mass density ([2]; 313.15 K, x2 = 0): 981.7 ± 0.4 kg/m3 | mass density ([2]; 313.15 K, x2 = 0.0828): 975.9 ± 0.4 kg/m3 | mass density ([2]; 313.15 K, x2 = 0.1818): 969.2 ± 0.4 kg/m3 | mass density ([2]; 313.15 K, x2 = 0.2807): 962.2 ± 0.4 kg/m3 | mass density ([2]; 313.15 K, x2 = 0.3704): 954.9 ± 0.4 kg/m3 | mass density ([2]; 313.15 K, x2 = 0.4652): 945.9 ± 0.4 kg/m3 | mass density ([2]; 313.15 K, x2 = 0.5732): 933.8 ± 0.4 kg/m3 | mass density ([2]; 313.15 K, x2 = 0.6764): 920.1 ± 0.3 kg/m3 | mass density ([2]; 313.15 K, x2 = 0.7791): 904.7 ± 0.3 kg/m3 | mass density ([2]; 313.15 K, x2 = 0.888): 886.4 ± 0.3 kg/m3 | speed of sound ([2]; 323.15 K, x2 = 0): 1501 ± 3 m/s | speed of sound ([2]; 323.15 K, x2 = 0.0828): 1482 ± 3 m/s | speed of sound ([2]; 323.15 K, x2 = 0.1818): 1458 ± 3 m/s | speed of sound ([2]; 323.15 K, x2 = 0.2807): 1431 ± 3 m/s | speed of sound ([2]; 323.15 K, x2 = 0.3704): 1406 ± 3 m/s | speed of sound ([2]; 323.15 K, x2 = 0.4652): 1377 ± 3 m/s | speed of sound ([2]; 323.15 K, x2 = 0.5732): 1342 ± 3 m/s | speed of sound ([2]; 323.15 K, x2 = 0.6764): 1305 ± 2 m/s | speed of sound ([2]; 323.15 K, x2 = 0.7791): 1264 ± 2 m/s | speed of sound ([2]; 323.15 K, x2 = 0.888): 1219 ± 2 m/s | mass density ([2]; 323.15 K, x2 = 0): 973.3 ± 0.4 kg/m3 | mass density ([2]; 323.15 K, x2 = 0.0828): 968 ± 0.4 kg/m3 | mass density ([2]; 323.15 K, x2 = 0.1818): 961.5 ± 0.4 kg/m3 | mass density ([2]; 323.15 K, x2 = 0.2807): 954.6 ± 0.4 kg/m3 | mass density ([2]; 323.15 K, x2 = 0.3704): 947.3 ± 0.4 kg/m3 | mass density ([2]; 323.15 K, x2 = 0.4652): 938.2 ± 0.4 kg/m3 | mass density ([2]; 323.15 K, x2 = 0.5732): 925.9 ± 0.4 kg/m3 | mass density ([2]; 323.15 K, x2 = 0.6764): 911.9 ± 0.4 kg/m3 | mass density ([2]; 323.15 K, x2 = 0.7791): 896 ± 0.4 kg/m3 | mass density ([2]; 323.15 K, x2 = 0.888): 877 ± 0.4 kg/m3

Cc1ccccc1N [2-methylaniline] + CC(C)OC(C)C
speed of sound ([2]; 303.15 K, x2 = 0): 1579 ± 3 m/s | speed of sound ([2]; 303.15 K, x2 = 0.0717): 1530 ± 3 m/s | speed of sound ([2]; 303.15 K, x2 = 0.1513): 1475 ± 3 m/s | speed of sound ([2]; 303.15 K, x2 = 0.2389): 1415 ± 3 m/s | speed of sound ([2]; 303.15 K, x2 = 0.3255): 1359 ± 3 m/s | speed of sound ([2]; 303.15 K, x2 = 0.4206): 1299 ± 3 m/s | speed of sound ([2]; 303.15 K, x2 = 0.5248): 1237 ± 2 m/s | speed of sound ([2]; 303.15 K, x2 = 0.625): 1180 ± 2 m/s | speed of sound ([2]; 303.15 K, x2 = 0.7415): 1116 ± 2 m/s | speed of sound ([2]; 303.15 K, x2 = 0.866): 1049 ± 2 m/s | mass density ([2]; 303.15 K, x2 = 0): 990.1 ± 0.3 kg/m3 | mass density ([2]; 303.15 K, x2 = 0.0717): 968.9 ± 0.3 kg/m3 | mass density ([2]; 303.15 K, x2 = 0.1513): 946.3 ± 0.3 kg/m3 | mass density ([2]; 303.15 K, x2 = 0.2389): 922 ± 0.3 kg/m3 | mass density ([2]; 303.15 K, x2 = 0.3255): 898.8 ± 0.3 kg/m3 | mass density ([2]; 303.15 K, x2 = 0.4206): 873.5 ± 0.3 kg/m3 | mass density ([2]; 303.15 K, x2 = 0.5248): 845.6 ± 0.3 kg/m3 | mass density ([2]; 303.15 K, x2 = 0.625): 817.9 ± 0.3 kg/m3 | mass density ([2]; 303.15 K, x2 = 0.7415): 784.9 ± 0.3 kg/m3 | mass density ([2]; 303.15 K, x2 = 0.866): 749.3 ± 0.3 kg/m3 | speed of sound ([2]; 313.15 K, x2 = 0): 1539 ± 3 m/s | speed of sound ([2]; 313.15 K, x2 = 0.0717): 1491 ± 3 m/s | speed of sound ([2]; 313.15 K, x2 = 0.1513): 1437 ± 3 m/s | speed of sound ([2]; 313.15 K, x2 = 0.2389): 1378 ± 3 m/s | speed of sound ([2]; 313.15 K, x2 = 0.3255): 1320 ± 3 m/s | speed of sound ([2]; 313.15 K, x2 = 0.4206): 1259 ± 2 m/s | speed of sound ([2]; 313.15 K, x2 = 0.5248): 1197 ± 2 m/s | speed of sound ([2]; 313.15 K, x2 = 0.625): 1139 ± 2 m/s | speed of sound ([2]; 313.15 K, x2 = 0.7415): 1074 ± 2 m/s | speed of sound ([2]; 313.15 K, x2 = 0.866): 1007 ± 2 m/s | mass density ([2]; 313.15 K, x2 = 0): 981.7 ± 0.4 kg/m3 | mass density ([2]; 313.15 K, x2 = 0.0717): 962.3 ± 0.4 kg/m3 | mass density ([2]; 313.15 K, x2 = 0.1513): 940.3 ± 0.4 kg/m3 | mass density ([2]; 313.15 K, x2 = 0.2389): 916.1 ± 0.3 kg/m3 | mass density ([2]; 313.15 K, x2 = 0.3255): 892.6 ± 0.3 kg/m3 | mass density ([2]; 313.15 K, x2 = 0.4206): 866.9 ± 0.3 kg/m3 | mass density ([2]; 313.15 K, x2 = 0.5248): 838.8 ± 0.3 kg/m3 | mass density ([2]; 313.15 K, x2 = 0.625): 811 ± 0.3 kg/m3 | mass density ([2]; 313.15 K, x2 = 0.7415): 777.6 ± 0.3 kg/m3 | mass density ([2]; 313.15 K, x2 = 0.866): 741 ± 0.3 kg/m3 | speed of sound ([2]; 323.15 K, x2 = 0): 1501 ± 3 m/s | speed of sound ([2]; 323.15 K, x2 = 0.0717): 1457 ± 3 m/s | speed of sound ([2]; 323.15 K, x2 = 0.1513): 1404 ± 3 m/s | speed of sound ([2]; 323.15 K, x2 = 0.2389): 1343 ± 3 m/s | speed of sound ([2]; 323.15 K, x2 = 0.3255): 1284 ± 2 m/s | speed of sound ([2]; 323.15 K, x2 = 0.4206): 1224 ± 2 m/s | speed of sound ([2]; 323.15 K, x2 = 0.5248): 1160 ± 2 m/s | speed of sound ([2]; 323.15 K, x2 = 0.625): 1103 ± 2 m/s | speed of sound ([2]; 323.15 K, x2 = 0.7415): 1038 ± 2 m/s | speed of sound ([2]; 323.15 K, x2 = 0.866): 968 ± 2 m/s | mass density ([2]; 323.15 K, x2 = 0): 973.3 ± 0.4 kg/m3 | mass density ([2]; 323.15 K, x2 = 0.0717): 955.7 ± 0.4 kg/m3 | mass density ([2]; 323.15 K, x2 = 0.1513): 934.4 ± 0.4 kg/m3 | mass density ([2]; 323.15 K, x2 = 0.2389): 910.4 ± 0.4 kg/m3 | mass density ([2]; 323.15 K, x2 = 0.3255): 886.4 ± 0.4 kg/m3 | mass density ([2]; 323.15 K, x2 = 0.4206): 860.2 ± 0.4 kg/m3 | mass density ([2]; 323.15 K, x2 = 0.5248): 831.6 ± 0.4 kg/m3 | mass density ([2]; 323.15 K, x2 = 0.625): 803.6 ± 0.3 kg/m3 | mass density ([2]; 323.15 K, x2 = 0.7415): 770 ± 0.3 kg/m3 | mass density ([2]; 323.15 K, x2 = 0.866): 732.8 ± 0.3 kg/m3

Cc1cccc(N)c1 [3-methylaniline]
speed of sound ([1]; 303.15 K): 1567 ± 3 m/s | mass density ([1]; 303.15 K): 980.8 ± 0.3 kg/m3 | speed of sound ([1]; 313.15 K): 1533 ± 3 m/s | mass density ([1]; 313.15 K): 972.7 ± 0.4 kg/m3 | speed of sound ([1]; 323.15 K): 1492 ± 3 m/s | mass density ([1]; 323.15 K): 964.6 ± 0.4 kg/m3

Reference: the NIST ThermoML archive (doi:10.1016/j.tca.2011.01.019)
